Experimental data published in patent US20130023569A1, “Use of Deferiprone for Treatment and Prevention of Iron-Related Eye Disorders” (THE TRUSTEES OF THE UNIVERSITY OF PENNSYLVANIA, priority 2009, published 2013).

Legend:
[1] = cited from earlier work
[2] = tested on: eye of Hra:(NZW)SPF rabbits; assay: Sensitivity testing of eye drops: ocular irritation/corrosion (Draize, sodium fluorescein); assay type: in vivo, rabbit
Protocol: The ocular irritation/corrosion potential of the product was assessed by instilling approximately 0.1 mL at a concentration of about 13 mg/mL into the everted lower lid of the right eye of 3 male Hra:(NZW)SPF rabbits; the left eye served as the untreated control. Approximately 24 hours after instillation, the treated eyes were examined for corneal injury and washed using room-temperature physiological saline.

retinal iron = assay: Perls' stain of retinal iron in DKO mice, oral deferiprone; assay type: in vivo; settings: 13 month old DKO mouse, PO 1 mg/ml in drinking water for 9 months, vs untreated DKO
From the text: FIG. 4 illustrates three Perls' stains of 7 and 13 month old untreated DKO mice retinas (FIGS. 4A and 4B, respectively) and of a treated 13 month old DKO mouse (FIG. 4C). The following abbreviations appear in the Figures: RPE, retinal pigment epithelium; ONL, outer nuclear layer; OPL, outer plexiform layer; IPL, inner plexiform layer; GCL, ganglion cell layer. Scale bar: 50 μm.
Eye Drop Administration: Beginning at age 5 months (when elevated retinal iron levels are detected), mice were given deferiprone eye drops (10 mg/ml) three times a day in one eye and control water eye drops in the other eye for two months, with the last drop given 2 h prior to sacrifice. […] The number and length of retinal pigment epithelial (RPE) cell hypertrophy and photoreceptor atrophy areas were quantified in deferiprone-treated vs. water-treated control eyes. The intensity of Perls' stain in the ciliary body, retina and RPE were assessed in digital photomicrographs quantifying pixel density.
(§1) Oral Administration: DKO mice were given deferiprone in their drinking water at a concentration of (1 mg/ml). […] The animals were sacrificed at various time points that are known to represent significant retinal and neurological damage in untreated animals and the eyes of sacrificed animals were analyzed as noted above. […]

[3] = tested on: Cp/Heph double knockout (DKO) mice; assay: Survival (Kaplan-Meier) and ataxia of DKO mice, oral deferiprone; assay type: in vivo, mouse
From the text: FIG. 7 is a Kaplan-Meier survival curve for deferiprone treated and untreated DKO mice.
(§2) In the following examples, double knockout (DKO) mice were used where the mice were genetically modified to generate a deficiency in the ferroxidase ceruloplasmin (Cp) and its homologue hephaestin (Heph). These mice develop age-related retinal degeneration due to retinal iron accumulation, as do humans. Since the knockout affects all tissues and organs, they also develop other symptoms of localized iron excess, with a simultaneous inability to adequately utilize the available iron for normal homeostasis, such as making new hemoglobin (they have low hematocrits). […]
Oral Administration: DKO mice were given deferiprone in their drinking water at a concentration of (1 mg/ml). […] The animals were sacrificed at various time points that are known to represent significant retinal and neurological damage in untreated animals and the eyes of sacrificed animals were analyzed as noted above.
(P<0.0001). The lifespan of the treated animals is an under-estimate, as these mice were sacrificed for iron quantification before they became sick. […]

[4] = tested on: transferrin receptor messenger ribonucleic acid (TfR mRNA); assay: TfR mRNA by qPCR in RPE/choroid after deferiprone eye drops; assay type: in vivo, mouse; settings: eye drops 10 mg/ml three times a day for two months, right eye treated vs left eye control
Protocol: FIG. 3 is a graph illustrating the amount of transferrin receptor messenger ribonucleic acid (TfR mRNA) in the RPE/choroid from a treated eye and an untreated eye. The error bars represent SD of 3 PCR reactions using the same batch of mRNA template.
(§3) Eye Drop Administration: Beginning at age 5 months (when elevated retinal iron levels are detected), mice were given deferiprone eye drops (10 mg/ml) three times a day in one eye and control water eye drops in the other eye for two months, with the last drop given 2 h prior to sacrifice. Eyes were fixed in 2% paraformaldehyde/2% glutaraldehyde then sectioned for analysis of morphology (following staining with Toluidine Blue) and iron content (following staining with Perls' Prussian Blue). The number and length of retinal pigment epithelial (RPE) cell hypertrophy and photoreceptor atrophy areas were quantified in deferiprone-treated vs. water-treated control eyes. The intensity of Perls' stain in the ciliary body, retina and RPE were assessed in digital photomicrographs quantifying pixel density.
The mouse had the right eye (OD) treated with deferiprone topically (in the form of the eye drops, 10 mg/ml) three times a day for two months, whereas the left eye (OS) was used as an internal control. The last administration was given 2 h prior to sacrifice. Relative quantification of TfR mRNA was detected by qPCR. […]

[5] = Hematocrit in DKO mice, oral deferiprone; assay type: in vivo, mouse
From the text: as §2, with “hematocrits). These animals also develop neurological deficits, including ataxia and die at an early age, typically 6-9 months, although some may survive to 12 or 13 months with significant impaired ability to function The retinas of these Cp/Heph deficient mice accumulate iron in the RPE and photoreceptor outer segments in an age-dependent manner, then develop RPE and photoreceptor degeneration with subretinal neovascularization and sub-RPE wide-spaced collagen deposits.” for “hematocrits).”
as §1

[6] = tested on: Cp/Heph double knockout (DKO) mice; assay: Retinal histology of Cp/Heph DKO mice given oral deferiprone in drinking water; assay type: in vivo, mouse
From the text: In the following examples, double knockout (DKO) mice were used where the mice were genetically modified to generate a deficiency in the ferroxidase ceruloplasmin (Cp) and its homologue hephaestin (Heph). These mice develop age-related retinal degeneration due to retinal iron accumulation, as do humans. Since the knockout affects all tissues and organs, they also develop other symptoms of localized iron excess, with a simultaneous inability to adequately utilize the available iron for normal homeostasis, such as making new hemoglobin (they have low hematocrits). These animals also develop neurological deficits, including ataxia and die at an early age, typically 6-9 months, although some may survive to 12 or 13 months with significant impaired ability to function The retinas of these Cp/Heph deficient mice accumulate iron in the RPE and photoreceptor outer segments in an age-dependent manner, then develop RPE and photoreceptor degeneration with subretinal neovascularization and sub-RPE wide-spaced collagen deposits. Cp/Heph DKO mice develop retinal, brain, liver, and heart iron overload with iron deficiency anemia. In untreated DKOs, iron gets trapped in the tissues and is not returned to the blood, leading to iron deficiency anemia. There is an age-dependent tissue iron buildup with retinal and brain degeneration.
as §3
Oral Administration: DKO mice were given deferiprone in their drinking water at a concentration of (1 mg/ml). The mice typically drink 5 ml of water a day and weigh 30 g. Mice began drinking deferiprone/water at age 7 months since that is the time such mice normally develop the retinal changes consistent with AMD. The animals were sacrificed at various time points that are known to represent significant retinal and neurological damage in untreated animals and the eyes of sacrificed animals were analyzed as noted above.

[7] = tested on: transferrin Receptor (TfR) mRNA; assay: TfR mRNA by qPCR in retina and RPE/choroid of wild type mice, oral deferiprone; assay type: in vivo, mouse; settings: 1 mg/ml in drinking water PO for 11 days, n=4, vs untreated
Protocol: FIG. 2 is two graphs showing relative quantification of transferrin Receptor (TfR) mRNA levels in the retinas and retinal pigment epithelia (RPE)/choroids of deferiprone treated and untreated wild type mice in retinas (FIG. 2A) and in RPE/choroids (FIG. 2B). The treated mice (n=4) were given deferiprone for 11 days PO (1 mg/ml in the drinking water). […] Relative quantification of TfR expression is also shown for the RPE/choroids (See FIG. 2B) of treated in comparison to untreated animals.

Compound: Cc1c(O)c(=O)ccn1C [deferiprone]
- half life ([1]; humans): about 2 hours
- agranulocytosis, share of patients ([1]; thalassemia patients, oral doses 75 to 100 mg/kg/day): about 1%
- eye irritation, Draize score ([2]; 0.1 mL of about 13 mg/mL into right eye of 3 male rabbits, 1, 24, 48 and 72 hours after instillation): 0
- corneal injury, sodium fluorescein test ([2]; about 24 hours post dose, about 13 mg/mL, rabbits): no injury to the cornea
- retinal iron (Perls' stain) (retinal iron): decreased retinal iron
- ataxia ([3]; DKO mice, 1 mg/ml in drinking water, 2 mice at 14 months and 2 at 12 months): some mild ataxia
- median survival ([3]; treated DKO mice, LogRank test, untreated 7 months, P<0.0001): 13 months
- TfR mRNA in RPE/choroid (relative quantification) [4]: siqnificant TfR mRNA increase
- hematocrit, mean value ([5]; deferiprone-treated DKO mice n=7, untreated mean 24.6%, P<0.05): 36.7%
- hematocrit at time of sacrifice ([5]; treated DKO mice 12 and 14 months old, 1 mg/ml in drinking water 5-7 months, untreated 19-26%): 30-50%
- retina appearance (toluidine blue plastic sections) ([6]; 14 month Cp/Heph knockout, oral deferiprone for 5 months, FIG. 1): appears normal except for a few mildly hypertrophic RPE cells
- retinal degeneration and damage ([6]; DKO mice 12-14 months old, deferiprone 1 mg/ml in drinking water for 5-7 months): almost no retinal degeneration and damage
- retinal tissue histology ([6]; DKO mice, deferiprone 1 mg/ml PO in drinking water for 6-9 months, FIG. 5): near normal tissue
- areas of RPE hypertrophy, share of the retina involved ([6]; most severely affected regions, DKO mice, deferiprone 1 mg/ml PO for 6-9 months, untreated more than 90%): < 10%
- TfR mRNA levels in retinas (relative quantification, standardized to 18S RNA) [7]: significant up regulation of TfR mRNA levels
- TfR expression in RPE/choroids (relative quantification) ([7]; P<0.05): significant difference
